One test relates to osteoclasts. Briefly: Osteoclast function (pit depth on dentine slices). It counts as cell-based, mouse. As to conditions: PI3K inhibitors 100 nM, 72 hr. On the procedure:
To analyze the effect of the present PI3Kδ inhibitor compounds on osteoclasts, mouse bone marrow cells are isolated and differentiated to osteoclasts by treating the cells with Macrophage Colony Stimulating Factor^−1 (mCSF^−1) and Osteoprotegerin Ligand (OPGL) in serum-containing medium (αMEM with 10% heat-inactivated FBS; Sigma) for 3 days. On day four, when the osteoclasts had developed, the medium is removed and cells are harvested. The osteoclasts are plated on dentine slices at 10^5 cells/well in growth medium, i.e., αMEM containing 1% serum and 2% BSA with […] OPGL and 10 ng/mL mCSF^−1. After 3 hr, the medium is changed to 1% serum and 1% BSA, with or without osteopontin (25 μg/mL) and the PI3K inhibitors (100 nM). The medium is changed every 24 hours with fresh osteopontin and the inhibitors. At 72 hr, the medium is removed, and the dentine surfaces are washed with water to remove cell debris and stained with acid hematoxylin. Excess stain is washed and the pit depths are quantitated using confocal microscopy.

Another test concerns Class I PI 3-kinases. As to conditions: read-out: IC50 values against each of these PI 3-kinases; cited from earlier work.
In another test the test system is neutrophil. As to conditions: cited from earlier work.

Consider `O=c1cc(N2CCOCC2)oc2c(-c3ccccc3)cccc12` [LY294002], for which the “inhibition of osteoclast activity” value with osteoclasts is recorded as “inhibited osteoclast activity”. The IC50 in the test on Class I PI 3-kinases was about 1 µM. Further, in the test on neutrophil, the neutrophil migration result is given as “block” and the superoxide release entry is “block”.
`COC[C@H]1OC(=O)c2coc3c2[C@@]1(C)C1=C(C3=O)[C@@H]2CCC(=O)[C@@]2(C)C[C@H]1OC(C)=O` [wortmannin]: in the test with osteoclasts, the “inhibition of osteoclast activity” value is on record as “inhibited osteoclast activity”. For the same compound, in the test with neutrophil, the neutrophil migration result is reported as “block” and the superoxide release entry is on record as “block”.

The values above are taken from patent US8980901B2, “5-fluoro-3-phenyl-2[1-(9H-purin-6-ylamino)propyl]-3H-quinazolin-4-one and 6-fluoro-3-phenyl-2-[1-(9H-purin-6-ylamino)ethyl]-3H-quinazolin-4-one as inhibitors of human phosphatidylinositol 3-kinase delta” (Icos Corporation, priority 2004, dated 2015).
